From patent US20150148417A1, “SYNTHESIS AND BIOLOGICAL STUDIES OF AN ISOMERIC MIXTURE OF (E/Z) ISOXYLITONES AND ITS ANALOGUES” (priority 2013, published 2015)
Entries after “also recorded” stand apart in the source; their conditions may differ.

Key:
[1] = system: BDNF protein expression; assay: BDNF immunohistochemistry in brain samples of chemically kindled mice; type: in vivo; conditions: for BDNF immunoreactivity in hippocampus and cortex: vs PTZ kindled group; for cumulative BDNF immunoreactivity (ImageJ): vs PTZ kindling
Procedure: Brain samples from chemically kindled mice (as described above) were collected immediately after the last treatment of animals with PTZ. Mice were deeply anesthetized and transcardially perfused with ice-cold 50 mL solution containing phosphate buffer saline (PBS) and heparin [1 mL (5000 I.U.) of heparin added for 500 mL of PBS]. Brains were removed from cranial cavity and were gently rinsed in cold PBS. After washing, they were fixed in ice cold 4% paraformaldehyde solution for 24 hr at 4° C. These samples were then placed in a cryoprotectant i.e. 30% sucrose in PBS until they sank to the bottom of the container. The samples were subsequently stored at −80° C. until further processing. Cryostat sagittal sections were prepared using cryostat (Thermo Electron Corporation, UK), frozen brain sections of 30-μm thickness were cut at −20° C. and collected directly on poly-lysine coated slides. At the time of processing, the cryosections were kept overnight in a humid chamber at room temperature containing PBS buffer. […] On the following day, the sections were re-hydrated by rinsing three times (5 min/rinse) with PBS buffer, followed by incubation in blocking solution (pre-filtered with syringe filter of […] size, consisting of 2% bovine serum albumin (BSA), 2% normal goat serum and 0.1% Tween-20) for 30 min at 37° C. For BDNF IHC, the sections were incubated overnight at 4° C. with the BDNF (N-20) primary antibody sc-546 rabbit IgG (Santa Cruz Biotechnology Inc., USA). Following overnight incubation in the primary antibody, sections were washed three times in PBS and then were incubated with secondary antibody, i.e. Alexa Fluor® 546 goat anti-rabbit IgG secondary antibody (1:100 dilution) from Invitrogen (Life Technologies, NY, USA) for 30 min at 37° C. in the dark, followed by a final washing step with PBS. Negative control slides were prepared without primary antibody to rule out the non-specific tissue binding of antibodies. The stained sections were observed under fluorescent microscope (Nikon ECLIPSE TE2000-S).
The schematic diagrams of brain sections adapted from the mouse brain atlas were used as a visual guide for determining the sub-region boundaries. The image processing program ImageJ (National Institutes of Health, MD, USA) was used to analyze the images. This software helps in multiple imaging system data comparisons, taking density (densitometry) in consideration. For each image, background density was determined and subtracted; the remaining particles were considered to represent BDNF expression. Data were obtained from two sections per […] (n=12 animals per group) and presented as means±S.E.M BDNF immunoreactivity in the amygdala, cortex, dorsal hippocampus and thalamus were centered approximately around 3.6 mm posterior to bregma. Within the hippocampus region, measurements were performed over the layer extending from sub-regions CA1-CA3.

[2] = system: PTZ-induced seizures; assay: Subcutaneous pentylenetetrazole (scPTZ)-induced acute seizure test; type: in vivo, mice; conditions: for mortality: acute scPTZ-induced mortality test
Procedure: Subcutaneous Pentylenetetrazole (scPTZ) Seizure Model (Acute Seizures Model)
Anticonvulsant effects of isoxylitones using scPTZ acute seizure test was evaluated by administering three doses i.e. 15, 20, and 30 mg/kg to groups of six mice, at least 30-40 min before subcutaneous administration of convulsive doses of PTZ (90 mg/kg). After administering PTZ, the mice were isolated and placed separately in a clear plexiglass chamber and closely observed for an hour for the presence or absence of different types of seizure patterns i.e. onset of body twitches, threshold seizures, generalized seizures with loss of righting reflex, loss of righting reflex with tonic forelimb seizures, loss of righting reflex with tonic forelimb and hind limb seizures (Table 1). The protection from PTZ-induced mortality was also monitored within 24 hours. In all experiments, diazepam (7.5 mg/kg i.p.) was used as a drug control.
Subcutaneous Pentylenetetrazole-Induced Seizure Test (scPTZ-Induced Acute Seizures Model): […]

[3] = system: scPTZ-induced kindling; assay: scPTZ-induced chemical kindling model of epileptogenesis; type: in vivo, mice; conditions: PTZ 50 mg/kg on alternate days
Procedure: Once screened in the acute seizure model, we next evaluated the effect of test compound on the development on epilepsy process using chemical kindling model of NMRI mice. […] The kindling was induced according to the modified method of De Sarro [23]. Each treatment group consists of 12 male NMRI mice ranging from 20-25 g. All the groups except normal control were given sub-convulsive dose of PTZ i.e., 50 mg/kg subcutaneously once on alternate day between 9:30-11:00 am. The normal control and drug control groups received daily intraperitoneal dose of saline (0.5 mL of 0.9% NaCl) and diazepam (7.5 mg/kg) respectively. Likewise, the test group was administered with the isoxylitones mixture (30 mg/kg, i.p.) once daily. On the day of PTZ administration, the treatment of saline, diazepam or isoxylitones were given 30-40 minutes before the PTZ. After each PTZ injection, animals were placed in observation chambers for 1 hour, and behavioral seizure activity was rated. Animals were scored according to a pre-validated scoring scale for the severity of the seizure activity they show. Seizure patterns during the gradual development of kindling are classified into five distinct behavioral stages as shown in the Table 1. The cumulative kindling score was then calculated and the experiments were terminated once the PTZ-control group reached the score 5. […]

[4] = system: mice; assay: Inverted screen acute neurotoxicity test; type: in vivo; conditions: 15, 20, 30, 50, 100 mg/kg i.p.; 5, 30, 60, 120 minutes
Procedure: The neurotoxic manifestation of isoxylitone was determined by inverted screen acute neurotoxicity test developed by Coughenour et al. in 1977. The apparatus consisted of six 13 cm square platforms of 0.6 cm wire mesh supported by metal bars mounted on a metal rod. The rod was supported at both ends and was inverted through an arc of 180°. Mice were pretested on the apparatus the day preceding the experiment, and those failing the task were not used for the subsequent drug test. Testing was carried out at 5, 30, 60 and 120 minutes following i.p. administration of 15 mg/kg, 20 mg/kg, 30 mg/kg, 50 mg/kg and 100 mg/kg of isoxylitone in groups of 6 mice. Mice unable to climb to an upright position for 1 min duration were rated as failures.

[5] = system: c-Fos protein and mRNA expression; assay: c-Fos protein and mRNA expression in brain samples of kindled mice; type: in vivo; conditions: 30 mg/kg; compared to PTZ-kindled control animals
Excerpt: Recently we have evaluated the effects of novel anticonvulsant isomeric compounds isoxylitones on the c-Fos protein and mRNA expression in the brain samples of kindled mice and compared it with the normal and untreated kindled groups.

[6] = system: SD rats; assay: Repeated daily dosing toxicity study, 15, 30 and 90 days; type: in vivo; conditions: 30 mg/kg daily
Procedure: The effective dose of isoxylitones i.e. 30 mg/kg was used in this study. The test was performed in SD rats. The animals divided into three groups and were daily administered with isoxylitones. The first group was sacrificed at the end of 15 days. The second group was sacrificed after 30 days and third group was sacrificed after 90 days. […] At the end, blood was taken via cardiac puncture for biochemistry. Gross anatomical observations were also made for organs as liver, spleen, kidney, heart, and lung and spleen and to examine the organ abnormalities.
The serum levels total bilirubin, GPT, GOT, alkaline phosphatase, and LDH was estimated.

[7] = system: mice; assay: Acute toxicity (Lorke's test) with gross behavioral observation; type: in vivo
Procedure: The isoxylitone was tested for acute toxicity (LD50) using Lorke's test. This method provides the acute toxicity data with the least consumption of animals i.e. initially only 12 animals are required; on obtaining the dose causing the death in 50% animals further three more animals is used at the same dose to get the data statistically significant. Briefly, animals were given different doses of isoxylitone i.e., 50 mg/kg, 75 mg/kg, 100 mg/kg, 500 mg/kg and 1000 mg/kg. After 24 and 48 hours, the maximum dose that had not induced mortality was considered as the maximum non-fatal dose. LD50 values and the corresponding confidence intervals were determined by the Litchfield and Wilcoxon methods (SPSS, version, USA). Data were expressed as mean values±SEM and tested with ANOVA and Tukey-Kramer tests.
They were observed continuously for 2 hours after administration of the test compounds and then every 30 minutes for next 3 hours and finally after 24 hours. The CNS stimulation was judged by the following signs and symptoms:
Locomotor activity, ataxia, clonic & tonic convulsions, sedation, catalepsy, crouching, lacrimation, salivation or any other signs which deviate from the normal behavior of the animal under observation.

[8] = system: mice; assay: Behavioral analysis (Turner scoring); type: in vivo; conditions: 30 mg/kg, 50 mg/kg and 100 mg/kg
Procedure: The behavioral analysis was performed adopting the modified procedure as described by Turner, 1972. The effects were recorded using a scoring system (scores were allocated according to the intensity of the symptoms from 0-4) as described by Turner i.e. for stereotype behavior 0: no effect; 1: intermittent; 2: continues 3: intense; 4: severe and for spontaneous activity 0: reduced activity; and 4: increased activity. Animals were transferred into individual cages to allow them to acclimatize to the new environment prior to the experiment.
Blind-testing was employed i.e., the experimenter conducting this study was blinded to the treatment given to the animals in order to avoid any biased interpretations.

[9] = diazepam 7.5 mg/kg i.p. before PTZ 90 mg/kg s.c.
[10] = isoxylitones 15 mg/kg i.p. before PTZ 90 mg/kg s.c.
[11] = isoxylitones 20 mg/kg i.p. before PTZ 90 mg/kg s.c.
[12] = isoxylitones 30 mg/kg i.p. before PTZ 90 mg/kg s.c.

`CN1C(=O)CN=C(c2ccccc2)c2cc(Cl)ccc21` [Diazepam, diazepam, reference compound] was tested, and the “BDNF immunoreactivity in hippocampus and cortex” value ([1]; diazepam 7.5 mg/kg) was “reduced the levels to controls; also recorded: markedly reduced the immunoreactivity”, the “cumulative BDNF immunoreactivity (ImageJ)” value ([1]; diazepam 7.5 mg/kg) was “significantly suppressed” and the “Hind Limb Tonic Extension (HLTE)” value [2, 9] was 0 s. The Mortality protection [2, 9] was 100%, the Onset of jerks [2, 9] was 850 ± 20 s and the “Rearing & falling” value [2, 9] was 0 s. The “development of kindling (seizure pattern)” value ([3]; diazepam 7.5 mg/kg daily) was “did not exhibit any seizure pattern till the end of the kindling protocol”.
isoxylitones was tested, and the “acute neurotoxicity (motor function)” value [4] was “did not show sign of acute neurotoxicity”, the c-Fos expression [5] was “significant reduction of c-Fos expression” and the mortality or morbidity [6] was “No mortality or morbidity”. For the same compound, the “signs of toxicity / gross behavioral effects” value ([7]; 250 mg/kg, approximately 20 minutes after injection) was “mild cramps and abdominal stretching”, the “signs of toxicity / gross behavioral effects” value ([7]; 500 mg/kg) was “signs of discomfort and mild toxicity; also recorded: Ataxia, complete sedation and drowsiness” and the “signs of toxicity / gross behavioral effects” value ([7]; 1000 mg/kg) was “complete ataxia and sedation”. For the same compound, the “animals showing signs of toxicity or altered behavior” value ([7]; 50 and 100 mg/kg, over 24 hours) was “None of the animals”, the “spontaneous motor activity and behavioral signs (ataxia, abdominal contractions, emesis, hyper-excitability, hyper-locomotion, twitches)” value [8] was “no alteration in the spontaneous motor activity” and the “BDNF immunoreactivity in hippocampus and cortex” value ([1]; isoxylitones 30 mg/kg) was “returned the enhanced BDNF immunoreactivity from PTZ kindling to the normal control levels”. For the same compound, the “BDNF immunoreactivity in hippocampus and cortex” value ([1]; isoxylitones 30 mg/kg, listed as isoxylitones) was “returned the BDNF levels to normal levels”, the “cumulative BDNF immunoreactivity (ImageJ)” value ([1]; isoxylitones 30 mg/kg) was “significantly suppressed” and the “protection from PTZ-induced loss of righting reflex with tonic-forelimb and tonic hind-limb seizures” value ([2]; 30 mg/kg) was 100%. The “prevention of PTZ-induced myoclonic twitches” value ([2]; 15 and 20 mg/kg) was “effectively prevent PTZ-induced myoclonic twitches”, the “protection from PTZ-induced seizure threshold” value ([2]; 15 and 20 mg/kg) was “unable to provide complete protection” and the “anticonvulsant activity in vivo models” value ([2]; compounds shown in FIG. 1) was “strong anticonvulsant activity”. The Onset of jerks ([2]; isoxylitones 15 mg/kg i.p. 40-50 min before PTZ 90 mg/kg s.c., mean ± SEM) was 440 ± 55 s, the “Hind Limb Tonic Extension (HLTE)” value [2, 10] was 1260 ± 20 s and the Mortality protection [2, 10] was 66.7%. For the same compound, the “Rearing & falling” value [2, 10] was 990 ± 33 s, the mortality ([2]; isoxylitones 15 mg/kg) was 33.3% and the “Hind Limb Tonic Extension (HLTE)” value [2, 11] was 0 s. The Mortality protection [2, 11] was 100%, the Onset of jerks [2, 11] was 580 ± 21 s and the “Rearing & falling” value [2, 11] was 1120 ± 40 s. For the same compound, the mortality ([2]; isoxylitones 20 mg/kg) was 20.8%, the “Hind Limb Tonic Extension (HLTE)” value [2, 12] was 0 s and the Mortality protection [2, 12] was 100%. The Onset of jerks [2, 12] was 900 ± 150 s, the “Rearing & falling” value [2, 12] was 0 s and the mortality ([2]; isoxylitones 30 mg/kg) was 0%. The “protection from different seizure patterns of PTZ-induced seizures (twitches, body jerks, clonus, generalized seizure)” value ([2]; isoxylitones given prior to PTZ, 15, 20, 30 mg/kg) was “dose-related protection” and the “development of kindling (seizure score)” value ([3]; isoxylitones 30 mg/kg i.p. once daily, 18 doses, 34 days) was “did not exhibit seizure score until the end of the kindling experiment; also recorded: complete inhibition in the development of kindling”.
